For 1 compound, inhibition results are on record in article PMC11233931, “Remodeling tumor‐associated macrophage for anti‐cancer effects by rational design of irreversible inhibition of mitogen‐activated protein kinase‐activated protein kinase 2” (MedComm, 2024).

The term inhibition denotes the drop in the measured response relative to a control, in per cent.

Assay in all cases: Eurofins kinase selectivity profile against 380 other human recombinant kinases (Table S2)
Format in all cases: biochemical

The target in assay [1] is T1, 380 human recombinant protein kinases (Homo sapiens, UniProt O75747).
T1 construct: purchased Eurofins (Celle Lévescault)
T1 sequence (O75747 1-1486): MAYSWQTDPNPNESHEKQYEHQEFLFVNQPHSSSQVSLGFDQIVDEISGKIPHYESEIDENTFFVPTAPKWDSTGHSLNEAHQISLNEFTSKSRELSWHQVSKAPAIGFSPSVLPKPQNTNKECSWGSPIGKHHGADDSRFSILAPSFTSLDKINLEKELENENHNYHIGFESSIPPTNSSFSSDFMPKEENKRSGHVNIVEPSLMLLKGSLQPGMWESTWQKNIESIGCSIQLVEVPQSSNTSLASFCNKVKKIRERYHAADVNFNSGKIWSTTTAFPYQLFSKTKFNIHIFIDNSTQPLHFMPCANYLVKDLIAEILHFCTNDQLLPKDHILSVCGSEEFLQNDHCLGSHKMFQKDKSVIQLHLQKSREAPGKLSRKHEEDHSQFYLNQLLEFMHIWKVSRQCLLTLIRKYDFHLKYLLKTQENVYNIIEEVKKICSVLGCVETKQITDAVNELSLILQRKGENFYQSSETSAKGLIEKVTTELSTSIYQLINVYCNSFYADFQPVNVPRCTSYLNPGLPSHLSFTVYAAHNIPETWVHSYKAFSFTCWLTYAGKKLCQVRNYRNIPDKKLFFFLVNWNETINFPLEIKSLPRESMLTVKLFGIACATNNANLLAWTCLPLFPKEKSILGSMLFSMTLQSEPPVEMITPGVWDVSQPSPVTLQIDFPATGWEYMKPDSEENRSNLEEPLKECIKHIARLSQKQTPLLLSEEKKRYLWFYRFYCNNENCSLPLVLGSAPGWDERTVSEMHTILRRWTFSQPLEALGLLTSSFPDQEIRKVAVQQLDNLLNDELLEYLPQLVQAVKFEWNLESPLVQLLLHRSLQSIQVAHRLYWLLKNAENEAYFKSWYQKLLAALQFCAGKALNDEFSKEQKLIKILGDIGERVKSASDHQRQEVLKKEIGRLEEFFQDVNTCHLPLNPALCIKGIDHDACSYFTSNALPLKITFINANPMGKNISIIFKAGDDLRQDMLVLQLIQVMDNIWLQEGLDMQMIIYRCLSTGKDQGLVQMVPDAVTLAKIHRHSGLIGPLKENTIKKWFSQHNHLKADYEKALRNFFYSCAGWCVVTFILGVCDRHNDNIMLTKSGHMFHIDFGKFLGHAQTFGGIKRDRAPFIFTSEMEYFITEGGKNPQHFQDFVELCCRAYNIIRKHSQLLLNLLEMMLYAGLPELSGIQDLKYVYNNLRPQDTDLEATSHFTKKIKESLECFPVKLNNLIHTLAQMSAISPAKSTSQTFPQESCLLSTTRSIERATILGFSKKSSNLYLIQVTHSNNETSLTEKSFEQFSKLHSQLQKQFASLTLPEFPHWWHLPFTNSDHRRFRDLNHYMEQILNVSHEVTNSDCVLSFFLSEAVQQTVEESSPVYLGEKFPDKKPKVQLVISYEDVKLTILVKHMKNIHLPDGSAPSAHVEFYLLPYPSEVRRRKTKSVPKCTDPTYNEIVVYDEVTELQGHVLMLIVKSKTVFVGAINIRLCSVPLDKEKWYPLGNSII
The note with it: PI3KC2γ(h), read-out: Inhibition rate (%). The method in brief: (§1)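 To gauge specificity for MK2, the compound is profiled externally at various concentrations on recombinant human kinases, 380 in total.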

Assay [2] concerns the target T2, 380 human recombinant protein kinases (Homo sapiens, UniProt P29376).
T2 construct: purchased Eurofins (Celle Lévescault)
The note with it: LTK(h), read-out: Inhibition rate. The method in brief: as §1

In assay [3] the target is T3, 380 human recombinant protein kinases (Homo sapiens, UniProt Q9UKE5).
T3 construct: purchased Eurofins (Celle Lévescault)
As to conditions: TNIK(h), read-out: Inhibition rate (%). The method in brief:
as §1

Assay [4] has as its target T4, 380 human recombinant protein kinases (Homo sapiens, UniProt Q9H093).
T4 construct: purchased Eurofins (Celle Lévescault)
T4 sequence (Q9H093 1-628): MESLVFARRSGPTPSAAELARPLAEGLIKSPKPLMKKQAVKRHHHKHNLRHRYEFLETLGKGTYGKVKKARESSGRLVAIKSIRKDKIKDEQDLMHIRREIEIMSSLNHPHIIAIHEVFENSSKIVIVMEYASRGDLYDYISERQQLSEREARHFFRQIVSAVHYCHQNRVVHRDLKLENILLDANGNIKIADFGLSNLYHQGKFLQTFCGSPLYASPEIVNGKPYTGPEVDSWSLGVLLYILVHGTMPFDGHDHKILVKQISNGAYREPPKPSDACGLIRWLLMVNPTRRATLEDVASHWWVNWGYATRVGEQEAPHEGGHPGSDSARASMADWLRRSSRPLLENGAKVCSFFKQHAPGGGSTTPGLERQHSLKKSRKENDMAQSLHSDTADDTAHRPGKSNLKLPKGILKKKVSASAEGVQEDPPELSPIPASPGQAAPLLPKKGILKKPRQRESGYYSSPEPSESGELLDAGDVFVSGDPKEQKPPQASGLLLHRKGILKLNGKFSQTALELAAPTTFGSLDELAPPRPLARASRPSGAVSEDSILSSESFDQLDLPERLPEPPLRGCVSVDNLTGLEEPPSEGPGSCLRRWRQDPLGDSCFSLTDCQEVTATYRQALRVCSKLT
As to conditions: NUAK2(h), read-out: Inhibition rate. The method in brief:
as §1

T3 sequence (Q9UKE5 whole entry): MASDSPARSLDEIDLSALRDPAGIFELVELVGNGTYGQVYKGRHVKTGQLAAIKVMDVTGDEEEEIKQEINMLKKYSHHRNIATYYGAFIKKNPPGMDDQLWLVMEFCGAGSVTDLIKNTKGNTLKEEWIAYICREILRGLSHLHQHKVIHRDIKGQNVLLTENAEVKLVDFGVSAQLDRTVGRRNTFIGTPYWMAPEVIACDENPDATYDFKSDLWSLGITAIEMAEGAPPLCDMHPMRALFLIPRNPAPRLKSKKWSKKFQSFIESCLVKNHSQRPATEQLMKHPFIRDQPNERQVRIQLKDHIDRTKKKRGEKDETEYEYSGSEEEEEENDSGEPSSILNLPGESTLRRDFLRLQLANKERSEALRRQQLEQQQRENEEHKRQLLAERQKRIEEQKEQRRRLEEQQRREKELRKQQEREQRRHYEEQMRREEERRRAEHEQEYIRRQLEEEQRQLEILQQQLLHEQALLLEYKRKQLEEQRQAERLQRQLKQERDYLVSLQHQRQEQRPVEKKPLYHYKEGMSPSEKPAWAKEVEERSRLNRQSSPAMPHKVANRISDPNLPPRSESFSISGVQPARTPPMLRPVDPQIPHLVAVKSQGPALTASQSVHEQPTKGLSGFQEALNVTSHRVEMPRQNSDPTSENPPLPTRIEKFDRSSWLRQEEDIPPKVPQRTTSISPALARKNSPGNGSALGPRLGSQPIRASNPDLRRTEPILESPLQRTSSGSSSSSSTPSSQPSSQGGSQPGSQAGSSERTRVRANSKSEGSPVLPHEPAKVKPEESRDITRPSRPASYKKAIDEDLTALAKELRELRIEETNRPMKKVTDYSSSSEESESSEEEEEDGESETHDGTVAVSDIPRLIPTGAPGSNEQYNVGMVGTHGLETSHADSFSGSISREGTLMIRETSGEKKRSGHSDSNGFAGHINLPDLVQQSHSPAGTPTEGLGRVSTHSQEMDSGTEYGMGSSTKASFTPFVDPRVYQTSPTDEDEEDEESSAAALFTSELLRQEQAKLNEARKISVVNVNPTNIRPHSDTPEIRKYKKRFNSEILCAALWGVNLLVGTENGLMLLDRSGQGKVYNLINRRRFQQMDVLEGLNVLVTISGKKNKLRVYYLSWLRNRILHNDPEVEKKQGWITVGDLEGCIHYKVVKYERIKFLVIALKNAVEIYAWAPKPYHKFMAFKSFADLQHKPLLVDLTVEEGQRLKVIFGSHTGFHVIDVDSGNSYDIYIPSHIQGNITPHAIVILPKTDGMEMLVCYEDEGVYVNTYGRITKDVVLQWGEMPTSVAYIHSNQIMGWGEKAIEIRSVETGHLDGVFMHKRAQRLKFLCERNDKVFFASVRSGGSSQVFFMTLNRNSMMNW
T2 sequence (P29376 17-864): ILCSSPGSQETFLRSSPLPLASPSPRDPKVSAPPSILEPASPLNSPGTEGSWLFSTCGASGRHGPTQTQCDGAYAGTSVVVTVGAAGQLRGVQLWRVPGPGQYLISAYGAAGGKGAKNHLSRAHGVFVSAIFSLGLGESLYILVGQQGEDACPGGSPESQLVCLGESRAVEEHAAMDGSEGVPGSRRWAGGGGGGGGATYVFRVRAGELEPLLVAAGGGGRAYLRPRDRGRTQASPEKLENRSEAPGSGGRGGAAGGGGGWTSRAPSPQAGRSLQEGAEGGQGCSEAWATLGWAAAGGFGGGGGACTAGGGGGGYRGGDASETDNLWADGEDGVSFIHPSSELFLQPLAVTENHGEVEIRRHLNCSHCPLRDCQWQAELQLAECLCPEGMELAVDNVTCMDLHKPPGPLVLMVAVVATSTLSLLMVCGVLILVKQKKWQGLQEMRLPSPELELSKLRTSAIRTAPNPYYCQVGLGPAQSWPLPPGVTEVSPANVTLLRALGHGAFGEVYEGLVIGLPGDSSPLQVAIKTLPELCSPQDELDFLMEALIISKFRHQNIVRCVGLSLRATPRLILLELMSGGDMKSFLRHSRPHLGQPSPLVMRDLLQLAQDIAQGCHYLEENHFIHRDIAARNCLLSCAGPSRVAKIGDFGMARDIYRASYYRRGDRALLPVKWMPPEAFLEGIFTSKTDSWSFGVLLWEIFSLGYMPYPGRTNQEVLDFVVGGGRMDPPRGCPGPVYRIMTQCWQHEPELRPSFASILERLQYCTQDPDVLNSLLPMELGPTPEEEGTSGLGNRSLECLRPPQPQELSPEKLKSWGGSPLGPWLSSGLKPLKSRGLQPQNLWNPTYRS

As for `C=CC(=O)Nc1cc(-c2cc(-c3cc4c([nH]3)CCNC4=O)ccn2)ccc1OC(F)(F)F` [compound 11], the inhibition at 0.01 µM in assay [1] (10 nM) is 6%; in assay [2] (10 nM) it was -6%; in assay [3] (10 nM) it was -12%; in assay [4] (10 nM) it was -16%. In addition, the inhibition at 0.1 µM is 13% in assay [1] (100 nM), 2% in assay [2] (100 nM), 9% in assay [3] (100 nM) and -8% in assay [4] (100 nM). Besides, the inhibition at 1 µM in assay [1] (1000 nM) was found to be 12%; in assay [2] (1000 nM) it was 6%; in assay [3] (1000 nM) it was 42%; in assay [4] (1000 nM), 8%.
